Patent US9187467B2, “2-phenyl benzothiazole linked imidazole compounds as potential anticancer agents and process for the preparation thereof” (Council of Scientific and Industrial Research, priority 2012, dated 2015)
Like-named read-outs stand apart in the source and are kept apart here.

Experiments:
[1] = test system: UO-31; experiment: SRB anticancer assay, renal; format: cell-based, human; parameters: Log10GI50: unit not given here
[2] = test system: T-47D; experiment: SRB anticancer assay, breast; format: cell-based; details: Homo sapiens, T47D, 48 h
[3] = test system: BT-549; experiment: SRB anticancer assay, breast; format: cell-based, human; parameters: Log10GI50: unit not given here
[4] = test system: LOX IMVI; experiment: SRB anticancer assay, melanoma; format: cell-based, human; parameters: Log10GI50: unit not given here
[5] = test system: TK-10; experiment: SRB anticancer assay, renal; format: cell-based, human; details: Homo sapiens, TK-10, 48 h
[6] = test system: U251; experiment: SRB anticancer assay, CNS; format: cell-based, human; parameters: Log10GI50: unit not given here
[7] = test system: SF-539; experiment: SRB anticancer assay, CNS; format: cell-based, human; parameters: Log10GI50: unit not given here
[8] = test system: MCF-7 (Breast carcinoma) cells; experiment: Cell cycle distribution by flow cytometry (FACS); format: cell-based; details: MCF-7 cells, 2 μM, 24h
Method: FIG. 1 represents FACS analysis of cell cycle distribution of MCF-7 cells after treatment with compounds CA-4, 21a, 21d, 4c, 6d, 6e, 6f, 7d, 7h and 7j at 2 μM concentration for 24h and control cells are the cells treated with DMSO (0.25%).
(§1) In order to investigate the mechanism underlying the anti-proliferative effect of the compounds the cell cycle distribution was analyzed in K562 (Leukemia) and MCF-7 (Breast carcinoma) cell lines by flow cytometry. Compounds CA-4, 21a, 21d, 4c, 6d, 6e, 6f, 7d, 7h and 7j have shown 1.72%, 14%, 12%, 14%, 12%, 14%, 14%, 16%, 16% &12% in K562 cells and 49.63%, 21%, 20%, 18%, 21%, 21%, 21%, 24%, 23% and 23% in MCF-7 cell line respectively. […] Thus compound 7d was considered for further studies (FIG. 1).

[9] = test system: HL-60 (TB); experiment: SRB anticancer assay, leukemia; format: cell-based, human; parameters: Log10GI50: unit not given here
[10] = test system: Non-small cell lung cancer cell lines; experiment: SRB anticancer assay, panel result; format: cell-based, human
Summary of the method: (§2)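 Tested across a sixty-line human cancer panel spanning nine tumour types. Dose–response curves used at least five concentrations in 10-fold dilution steps, with 48 h continuous drug exposure; cell growth/viability was estimated by sulforhodamine B protein staining.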

[11] = test system: Melanoma cancer cell lines; experiment: SRB anticancer assay, panel result; format: cell-based, human
Summary of the method: as §2

[12] = test system: Prostate cancer cell lines; experiment: SRB anticancer assay, panel result; format: cell-based, human
Summary of the method: as §2

[13] = test system: Ovarian cancer cell lines; experiment: SRB anticancer assay, panel result; format: cell-based, human
Summary of the method: as §2

[14] = test system: Renal cancer cell lines; experiment: SRB anticancer assay, panel result; format: cell-based, human
Summary of the method: as §2

[15] = test system: Leukemia cancer cell lines; experiment: SRB anticancer assay, panel result; format: cell-based, human
Summary of the method: as §2

[16] = test system: CNS cancer cell lines; experiment: SRB anticancer assay, panel result; format: cell-based, human
Summary of the method: as §2

[17] = test system: Colon cancer cell lines; experiment: SRB anticancer assay, panel result; format: cell-based, human
Summary of the method: as §2

[18] = test system: PC-3; experiment: SRB anticancer assay, prostate; format: cell-based, human; parameters: Log10GI50: unit not given here
[19] = test system: IGROV1; experiment: SRB anticancer assay, ovarian; format: cell-based, human; details: Homo sapiens, IGROV-1; IGROV1, 48 h
[20] = test system: ACHN; experiment: SRB anticancer assay, renal; format: cell-based, human; parameters: Log10GI50: unit not given here
[21] = test system: NCI-H226; experiment: SRB anticancer assay, non-small lung; format: cell-based, human; details: Homo sapiens, NCI-H226, 48 h
[22] = test system: UACC-62; experiment: SRB anticancer assay, melanoma; format: cell-based, human
[23] = test system: K562 (Leukemia) cells; experiment: Cell cycle distribution by flow cytometry; format: cell-based
Method: as §1

[24] = test system: NCI-H522; experiment: SRB anticancer assay, non-small lung; format: cell-based, human; parameters: Log10GI50: unit not given here

Work on COc1cc(OC)cc(-c2cncn2-c2ccc(-c3nc4cc(OC)c(OC)c(OC)c4s3)cc2)c1 [Compound 7d, 2-(4-(5-(3,5-Dimethoxyphenyl)-1H-imidazol-1-yl)phenyl)-5,6,7-trimethoxybenzo[d]thiazole] yielded a GI50 ([1]; Homo sapiens, UO-31, 48 h) of 1.94 µM, a Log10GI50 ([1]; UO-31, present compounds) of −5.71 and a GI50 [2] of 10.7 µM. The Log10GI50 ([3]; BT-549, present compounds) was −5.17, the GI50 ([3]; Homo sapiens, BT-549, 48 h) was 4.74 µM and the GI50 ([4]; Homo sapiens, 48 h) was 6.93 µM. For the same compound, the Log10GI50 ([4]; present compounds) was −5.16, the GI50 [5] was 26.4 µM and the GI50 ([6]; Homo sapiens, U-251, U251, 48 h) was 5.44 µM. It also gave a Log10GI50 ([6]; U251, present compounds) of −5.26, a GI50 ([7]; Homo sapiens, SF-539, 48 h) of 22 µM and a Log10GI50 ([7]; SF-539, present compounds) of −4.66. For the same compound, the “cells in G2/M phase” value [8] was 24%, the Log10GI50 ([9]; HL-60(TB), present compounds) was −5.61 and the GI50 ([9]; Homo sapiens, HL-60, 48 h) was 2.43 µM. The LC50 ([10]; Homo sapiens, Non-small cell lung panel, 50% net cell death, read-out: mean graph midpoint value (MG_MID) of Log10 LC50 (converted)) was > 100 µM, the GI50 ([10]; Homo sapiens, Non-small cell lung panel, read-out: mean graph midpoint value (MG_MID) of Log10 GI50 (converted)) was 15.1 µM and the GI50 ([10]; Homo sapiens, nine Non-small cell lung cancer cell lines, exposure at least 48 h, read-out: GI50, range over the panel) was 1.87 to 86.5 µM. The “mean graph midpoint value (MG_MID) of log10 TGI” value ([10]; Non-small cell lung panel, total inhibition of net cell growth) was >−4.0, the LC50 ([11]; Homo sapiens, Melanoma panel, 50% net cell death, read-out: mean graph midpoint value (MG_MID) of Log10 LC50 (converted)) was > 100 µM and the GI50 ([11]; Homo sapiens, Melanoma panel, read-out: mean graph midpoint value (MG_MID) of Log10 GI50 (converted)) was 9.33 µM. The GI50 ([11]; Homo sapiens, nine melanoma cancer cell lines, exposure at least 48 h, read-out: GI50, range over the panel) was 2.85 to 31.6 µM, the “mean graph midpoint value (MG_MID) of log10 TGI” value ([11]; Melanoma panel, total inhibition of net cell growth) was −4.02 and the LC50 ([12]; Homo sapiens, Prostate panel, 50% net cell death, read-out: mean graph midpoint value (MG_MID) of Log10 LC50 (converted)) was > 100 µM. For the same compound, the GI50 ([12]; Homo sapiens, Prostate panel, read-out: mean graph midpoint value (MG_MID) of Log10 GI50 (converted)) was 10 µM, the GI50 ([12]; Homo sapiens, two prostate cancer cell lines (PC-3, DU-145), exposure at least 48 h, read-out: GI50, range over the panel) was 3.17 to 31.1 µM and the “mean graph midpoint value (MG_MID) of log10 TGI” value ([12]; Prostate panel, total inhibition of net cell growth) was >−4.0. The LC50 ([13]; Homo sapiens, Ovarian panel, 50% net cell death, read-out: mean graph midpoint value (MG_MID) of Log10 LC50 (converted)) was > 100 µM, the GI50 ([13]; Homo sapiens, Ovarian panel, read-out: mean graph midpoint value (MG_MID) of Log10 GI50 (converted)) was 16.2 µM and the GI50 ([13]; Homo sapiens, seven ovarian cancer cell lines, exposure at least 48 h, read-out: GI50, range over the panel) was 6.07 to 49.9 µM. For the same compound, the “mean graph midpoint value (MG_MID) of log10 TGI” value ([13]; Ovarian panel, total inhibition of net cell growth) was −4.08, the CC50 ([14]; Homo sapiens, Renal panel, 50% net cell death, read-out: mean graph midpoint value (MG_MID) of Log10 LC50 (converted)) was > 100 µM and the GI50 ([14]; Homo sapiens, Renal panel, read-out: mean graph midpoint value (MG_MID) of Log10 GI50 (converted)) was 14.8 µM. The GI50 ([14]; Homo sapiens, eight renal cancer cell lines, exposure at least 48 h, read-out: GI50, range over the panel) was 1.94 to 31.9 µM, the “mean graph midpoint value (MG_MID) of log10 TGI” value ([14]; Renal panel, total inhibition of net cell growth) was −4.03 and the LC50 ([15]; Homo sapiens, Leukemia panel, 50% net cell death, read-out: mean graph midpoint value (MG_MID) of Log10 LC50 (converted)) was > 100 µM. For the same compound, the GI50 ([15]; Homo sapiens, Leukemia panel, read-out: mean graph midpoint value (MG_MID) of Log10 GI50 (converted)) was 3.72 µM, the GI50 ([15]; Homo sapiens, six leukemia cancer cell lines, exposure at least 48 h, read-out: GI50, range over the panel) was 2.43 to 7.14 µM and the “mean graph midpoint value (MG_MID) of log10 TGI” value ([15]; Leukemia panel, total inhibition of net cell growth) was >−4.0. The “mean graph midpoint value (MG_MID) of log10 TGI” value ([16]; CNS panel, total inhibition of net cell growth) was −4.11, the CC50 ([16]; Homo sapiens, CNS panel, 50% net cell death, read-out: mean graph midpoint value (MG_MID) of Log10 LC50 (converted)) was > 100 µM and the GI50 ([16]; Homo sapiens, CNS panel, read-out: mean graph midpoint value (MG_MID) of Log10 GI50 (converted)) was 12 µM. The GI50 ([16]; Homo sapiens, six CNS cancer cell lines, exposure at least 48 h, read-out: GI50, range over the panel) was 3.64 to 22.1 µM, the “mean graph midpoint value (MG_MID) of log10 TGI” value ([17]; Colon panel, total inhibition of net cell growth) was >−4.0 and the LC50 ([17]; Homo sapiens, Colon panel, 50% net cell death, read-out: mean graph midpoint value (MG_MID) of Log10 LC50 (converted)) was > 100 µM. For the same compound, the GI50 ([17]; Homo sapiens, Colon panel, read-out: mean graph midpoint value (MG_MID) of Log10 GI50 (converted)) was 9.12 µM, the GI50 ([17]; Homo sapiens, seven colon cancer cell lines, exposure at least 48 h, read-out: GI50, range over the panel) was 3.76 to 13.7 µM and the GI50 ([18]; Homo sapiens, PC-3, 48 h) was 3.17 µM. For the same compound, the Log10GI50 ([18]; PC-3, present compounds) was −5.50, the GI50 [19] was 9.6 µM and the GI50 ([20]; Homo sapiens, 48 h) was 11.5 µM. For the same compound, the Log10GI50 ([20]; present compounds) was −4.94, the GI50 [21] was 21.7 µM and the GI50 ([22]; Homo sapiens, UACC-62, 48 h) was 13.8 µM. For the same compound, the Log10GI50 ([22]; UACC-62, present compounds) was −4.86 log10 M, the “cells in G2/M phase” value [23] was 16% and the GI50 ([24]; Homo sapiens, NCI-H522, 48 h) was 11.8 µM. For the same compound, the Log10GI50 ([24]; NCI-H522, present compounds) was −4.93.
